The text below walks through data of patent US11724999B2, “Inhibitors of RAS-effector protein interactions” (Oxford University Innovation Limited, priority 2018, dated 2023).

This assay addresses T1, GST-human KRas166 (G12V) GPPNHP (Homo sapiens, UniProt P01116, G12V).
T1 construct: made in house; host or cells: E. coli C41(DE3)
Briefly: KRas small-molecule screening by SPR (BIACORE T200). Type of assay: binding. Conditions: compound at final concentration of 100 uM; immobilised GST-KRAS166 (G12V) GPPNHP, GST reference channel. Here is the method:
For SPR assays pGEX-KRAS(G12V) plasmid was transformed into E. coli C41(DE3). Bacterial cells were cultured at 37° C. to an OD600 of 0.6 and induced with IPTG (final 0.1 mM) at 18° C. overnight. The GST fusion proteins were extracted from bacteria pellets after cell disruption in 140 mM NaCl, 2.7 mM KCl, […], 1.8 mM KH2PO4, 1 mM EDTA, 2 mM MgCl2 pH 7.4 and purified by glutathione-sepharose column chromatography (GE Healthcare), eluting with 50 mM Tris-HCl pH8.0, 10 mM reduced glutathione, 1 mM DTT, 2 mM MgC2. The eluted proteins were dialysed against 50 mM Tris-HCl pH8.0, 1 mM DTT, 2 mM MgCl2 and concentrated to 10 mg/ml using a Biomax-30 […]-15 centrifugal filter device (Millipore). Purified KRAS protein was loaded with GPPNHP as described elsewhere (Pacold et al., 2000). Loaded protein was then purified by gel filtration on a HiLoad Superdex-75 HR column (GE Healthcare) in 1×PBS pH7.4, 5 mM MgCl2 and concentrated for storage.
To a previously immobilized CM5 chip (GE Healthcare BR-1005-30) with anti GST antibody via amine coupling method, GST in channel 1 and GST-human KRas166 (G12V) GPPNHP in channel 2 were immobilised. GST was immobilised between 2,000 and 5,000 Response units. KRAS166 (G12V) was immobilized between 10,000 to 15,000 Response Units.
In a 96 well plate, compounds were diluted in […], 5 mM MgCl2 and 5% DMSO Buffer to a final concentration of 100 uM. DCAI was used as positive control. Experiment also included a solvent correction curve for 5% DMSO. Screening and evaluation of the protein immobilization and the compounds screening was done accordingly to the BIACORE T200 control and evaluation software.
Protein immobilisation: 10,000 RU; average fragment 300 Da in size. Rmax=(MWA/MWL)×RL×SM MWA is the molecular weight of the analyte in Da MWL is the molecular weight of the ligand in Da RL is the immobilization level in RU SM is the molar stoichiometry (assume 1:1) Rmax=300/47,500×10,000×1 Rmax=63 RU. Cell Viability Assay protocols

Take `O=C(NCc1ccncc1)C1COc2ccc(OCc3ccccc3)cc2O1` (stereo not shown) [Example 68, 7-Benzyloxy-2,3-dihydro-benzo[1,4]dioxine-2-carboxylic acid (pyridin-4-ylmethyl)-amide]: the “SPR Response Units” value was found to be 57 Response Units. `O=C(C1COc2ccc(OCc3ccccc3)cc2O1)N1CCN(Cc2ccncc2)CC1` (stereo not shown) [Example 63, (7-Benzyloxy-2,3-dihydro-benzo[1,4]dioxin-2-yl)-(4-pyridin-4-ylmethyl-piperazin-1-yl)-methanone]: the “SPR Response Units” value is 79 Response Units. For `O=C1CN(c2ccccn2)C(=O)N1C[C@@H]1COc2ccc(OCc3ccccc3)cc2O1.O=CO` [Example 78, 3-((R)-7-Benzyloxy-2,3-dihydro-benzo[1,4]dioxin-2-ylmethyl)-1-pyridin-2-yl-imidazolidine-2,4-dione], the “SPR Response Units” value amounted to 28 Response Units.

On to `O=C1CC(CNC(=O)C2COc3ccc(OCc4ccccc4)cc3O2)CCN1` (stereo not shown) [Example 71, 7-Benzyloxy-2,3-dihydro-benzo[1,4]dioxine-2-carboxylic acid (2-oxo-piperidin-4-ylmethyl)-amide], for which the “SPR Response Units” value is recorded as 7 Response Units. The figure for `CC(=O)N1CCC(NC[C@@H]2COc3ccc(OCc4ccccc4)cc3O2)CC1` [Example 34, 1-{4-[((R)-7-Benzyloxy-2,3-dihydro-benzo[1,4]dioxin-2-ylmethyl)-amino]-piperidin-1-yl}-ethanone] is 23 Response Units. For `CN(C)CCC(=O)NC[C@@H]1COc2ccc(OCc3ccccc3)cc2O1` [Example 6, N-((R)-7-Benzyloxy-2,3-dihydro-benzo[1,4]dioxin-2-ylmethyl)-3-dimethylamino-propionamide], the “SPR Response Units” value amounted to 21 Response Units. On to `O=C(NC[C@@H]1COc2ccc(OCc3cccnc3)cc2O1)c1ncco1` [Example 19, Oxazole-2-carboxylic acid [(R)-7-(pyridin-3-ylmethoxy)-2,3-dihydro-benzo[1,4]dioxin-2-ylmethyl]-amide], for which the “SPR Response Units” value is 40 Response Units. The figure for `O=C(Cc1cccnc1)NC[C@@H]1COc2ccc(OCc3ccccc3)cc2O1` [Example 11, N-((R)-7-Benzyloxy-2,3-dihydro-benzo[1,4]dioxin-2-ylmethyl)-2-pyridin-3-yl-acetamide] is 68 Response Units; for `O=C(NC[C@@H]1COc2ccc(OCc3ccccc3)cc2O1)C1CCOCC1` [Example 5, Tetrahydro-pyran-4-carboxylic acid ((R)-7-benzyloxy-2,3-dihydro-benzo[1,4]dioxin-2-ylmethyl)-amide] it is 25 Response Units; for `CN1CCN(C(=O)NC[C@@H]2COc3ccc(OCc4ccccc4)cc3O2)CC1` [Example 82, 4-methyl-piperazine-1-carboxylic acid ((R)-7-benzyloxy-2,3-dihydro-benzo[1,4]dioxin-2-ylmethyl)-amide] it is 63 Response Units.

Turning to `O=C(NCc1cn[nH]c1)C1COc2ccc(OCc3ccccc3)cc2O1` (stereo not shown) [Example 73, 7-Benzyloxy-2,3-dihydro-benzo[1,4]dioxine-2-carboxylic acid (1H-pyrazol-4-ylmethyl)-amide], the “SPR Response Units” value is reported as 33 Response Units.

As for `CN1CCC(NC(=O)NC[C@@H]2COc3ccc(OCc4ccccc4)cc3O2)CC1` [Example 80, 1-(7-benzyloxy-2,3-dihydro-benzo[1,4]dioxin-2-ylmethyl)-3-(1-methyl-piperidin-4-yl)-urea], the “SPR Response Units” value came to 93 Response Units. Take `O=C(NCC1COCCN1)C1COc2ccc(OCc3ccccc3)cc2O1` (stereo not shown) [Example 76, 7-Benzyloxy-2,3-dihydro-benzo[1,4]dioxine-2-carboxylic acid (morpholin-3-ylmethyl)-amide]: the “SPR Response Units” value turned out to be 48 Response Units. For the compound `CN1CCC(CC(=O)NC[C@@H]2COc3ccc(OCc4ccccc4)cc3O2)CC1` [Example 8, N-((R)-7-Benzyloxy-2,3-dihydro-benzo[1,4]dioxin-2-ylmethyl)-2-(1-methyl-piperidin-4-yl)-acetamide], the “SPR Response Units” value came to 24 Response Units. As to `N[C@H]1CC[C@@H](NC(=O)C2COc3ccc(OCc4ccccc4)cc3O2)CC1` (stereo partly shown) [Example 75, 7-Benzyloxy-2,3-dihydro-benzo[1,4]dioxine-2-carboxylic acid (4-amino-cyclohexyl)-amide], the “SPR Response Units” value amounted to 51 Response Units. For the compound `CN1CCN(Cc2ccc(C(=O)NC[C@@H]3COc4ccc(OCc5ccc(Cl)cn5)cc4O3)o2)CC1` [Example 26, 5-(4-Methyl-piperazin-1-ylmethyl)-furan-2-carboxylic acid [(R)-7-(5-chloro-pyridin-2-ylmethoxy)-2,3-dihydro-benzo[1,4]dioxin-2-ylmethyl]-amide], the “SPR Response Units” value was 48 Response Units. As to `O=C(NCc1cccnc1)C1COc2ccc(OCc3ccccc3)cc2O1` (stereo not shown) [Example 67, 7-Benzyloxy-2,3-dihydro-benzo[1,4]dioxine-2-carboxylic acid (pyridin-3-ylmethyl)-amide], the “SPR Response Units” value was determined as 49 Response Units. For `CN1CCC(COc2ccc3c(c2)O[C@H](CNC(=O)c2ncco2)CO3)CC1` [Example 21, Oxazole-2-carboxylic acid [(R)-7-(1-methyl-piperidin-4-ylmethoxy)-2,3-dihydro-benzo[1,4]dioxin-2-ylmethyl]-amide], the “SPR Response Units” value was determined as 9 Response Units. Take `O=C(NCc1cccc(CN2CCOCC2)c1)C1COc2ccc(OCc3ccccc3)cc2O1` (stereo not shown) [Example 66, 7-Benzyloxy-2,3-dihydro-benzo[1,4]dioxine-2-carboxylic acid 3-morpholin-4-ylmethyl-benzylamide]: the “SPR Response Units” value stood at 53 Response Units.

With `O=C(NC[C@@H]1COc2ccc(OCc3cn[nH]c3)cc2O1)c1ncco1` [Example 20, Oxazole-2-carboxylic acid [(R)-7-(1H-pyrazol-4-ylmethoxy)-2,3-dihydro-benzo[1,4]dioxin-2-ylmethyl]-amide], the “SPR Response Units” value was found to be 40 Response Units. With `O=C(C1COc2ccc(OCc3ccccc3)cc2O1)N1CCN(CC2CCOCC2)CC1` (stereo not shown) [Example 64, (7-Benzyloxy-2,3-dihydro-benzo[1,4]dioxin-2-yl)-[4-(tetrahydro-pyran-4-ylmethyl)-piperazin-1-yl]-methanone], the “SPR Response Units” value is 36 Response Units. In the case of `c1ccc(COc2ccc3c(c2)O[C@H](CNCC2COCCN2)CO3)cc1` (stereo partly drawn) [Example 57, ((R)-7-Benzyloxy-2,3-dihydro-benzo[1,4]dioxin-2-ylmethyl)-morpholin-3-ylmethyl-amine] it was 29 Response Units; in that of `CNC(=O)C(NC[C@@H]1COc2ccc(OCc3ccccc3)cc2O1)c1ccccc1` (stereo partly drawn) [Example 49, 2-[((R)-7-Benzyloxy-2,3-dihydro-benzo[1,4]dioxin-2-ylmethyl)-amino]-N-methyl-2-phenyl-acetamide], 67 Response Units.

With `O=C(NCc1ccc(CN2CCOCC2)cc1)C1COc2ccc(OCc3ccccc3)cc2O1` (stereo not shown) [Example 65, 7-Benzyloxy-2,3-dihydro-benzo[1,4]dioxine-2-carboxylic acid 4-morpholin-4-ylmethyl-benzylamide], the “SPR Response Units” value amounted to 46 Response Units. For `O=C(CC1CCNCC1)NC[C@@H]1COc2ccc(OCc3ccccc3)cc2O1` [Example 16, N-((R)-7-Benzyloxy-2,3-dihydro-benzo[1,4]dioxin-2-ylmethyl)-2-piperidin-4-yl-acetamide], the “SPR Response Units” value is listed as 25 Response Units. For the compound `O=C(NCc1ccnc(F)c1)C1COc2ccc(OCc3ccccc3)cc2O1` (stereo not shown) [Example 72, 7-Benzyloxy-2,3-dihydro-benzo[1,4]dioxine-2-carboxylic acid (2-fluoro-pyridin-4-ylmethyl)-amide], the “SPR Response Units” value is 12 Response Units. The figure for `O=C(NC[C@@H]1COc2ccc(OCc3ccccc3)cc2O1)C1CCN(Cc2ccco2)CC1` [Example 15, 1-Furan-2-ylmethyl-piperidine-4-carboxylic acid ((R)-7-benzyloxy-2,3-dihydro-benzo[1,4]dioxin-2-ylmethyl)-amide] is 33 Response Units.

In the case of `c1ccc(COc2ccc3c(c2)O[C@H](CNC2CCc4ccccc42)CO3)cc1` (stereo partly drawn) [Example 48, ((R)-7-Benzyloxy-2,3-dihydro-benzo[1,4]dioxin-2-ylmethyl)-indan-1-yl-amine], the “SPR Response Units” value was 24 Response Units.
